The record followed here is ChEMBL document CHEMBL3612043, “Synthesis and biological evaluation of 6-substituted indolizinoquinolinediones as catalytic DNA topoisomerase I inhibitors” (Eur J Med Chem, 2015).

Test [1] concerns the target T1, DNA topoisomerase 1 (Homo sapiens) (UniProt P11387).
T1 sequence (whole entry): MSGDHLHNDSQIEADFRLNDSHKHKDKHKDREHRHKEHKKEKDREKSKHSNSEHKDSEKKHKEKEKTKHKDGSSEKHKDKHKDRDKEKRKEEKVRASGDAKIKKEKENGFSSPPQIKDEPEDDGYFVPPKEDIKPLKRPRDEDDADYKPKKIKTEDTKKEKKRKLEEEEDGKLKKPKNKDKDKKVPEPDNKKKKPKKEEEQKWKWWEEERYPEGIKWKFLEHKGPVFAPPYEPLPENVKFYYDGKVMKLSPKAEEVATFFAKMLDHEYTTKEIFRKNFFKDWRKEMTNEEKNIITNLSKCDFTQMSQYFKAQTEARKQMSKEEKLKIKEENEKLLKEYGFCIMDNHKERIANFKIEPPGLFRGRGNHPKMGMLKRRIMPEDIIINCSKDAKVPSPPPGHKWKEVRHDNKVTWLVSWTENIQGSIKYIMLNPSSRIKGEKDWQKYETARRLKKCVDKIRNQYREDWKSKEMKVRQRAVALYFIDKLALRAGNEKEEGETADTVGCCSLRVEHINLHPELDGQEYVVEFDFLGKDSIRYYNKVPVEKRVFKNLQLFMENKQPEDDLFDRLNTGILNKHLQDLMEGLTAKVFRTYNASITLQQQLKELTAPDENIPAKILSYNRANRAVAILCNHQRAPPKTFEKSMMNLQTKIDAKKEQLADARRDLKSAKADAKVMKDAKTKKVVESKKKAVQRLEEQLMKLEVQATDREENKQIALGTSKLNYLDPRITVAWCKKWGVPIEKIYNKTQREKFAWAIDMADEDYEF
Briefly: Induction of recombinant Top1 (unknown origin) assessed as 3'-[32P]-labeled 117-bp DNA oligonucleotide cleavage after 20 mins.

The species entered for a further test is Bos taurus. The test can be described thus: Inhibition of calf thymus Top1-mediated pBR322 DNA relaxation at 25 uM preincubated for 15 mins measured after 30 mins by ethidium bromide staining relative to camptothecin.
The target in test [2] is T1, DNA topoisomerase 1 (Homo sapiens). The test can be described thus: Inhibition of Top1 (unknown origin)-mediated unwinding of relaxed pBR322 DNA preincubated for 10 mins measured after 30 mins by UV transilluminator analysis.
The test system of another test is CA46. The test can be described thus: Cytotoxicity against human CA46 cells after 48 hrs by MTT assay. The following applies: CA46, 48 h. It counts as functional, cell-based.
A further test relates to HL-60. The test can be described thus: cells. The note with it: Homo sapiens, HL-60, 48 h.
The next test deals with HeLa. Briefly: cells. The note with it: Homo sapiens, 48 h.
Another test has as its system A549. Briefly: cells. The following applies: Homo sapiens, A549, 48 h.

Calls of active or inactive are those of the source. The rule behind the calls is not given here. A value given as a limit tells only on which side of the number the result lay.

Description for A549: Cytotoxicity against human A549 cells after 48 hrs by MTT assay
Description for HL-60: Cytotoxicity against human HL60 cells after 48 hrs by MTT assay
Description for HeLa: Cytotoxicity against human HeLa cells after 48 hrs by MTT assay

As for `O=C1c2cccnc2C(=O)c2c1c(C(=O)NCCN1CCOCC1)c1ccccn21`, the outcome in test [1] was inactive. For the same compound, the Top1 relaxation inhibition relative to camptothecin (%) in the test listed under Bos taurus is more than 120%. Besides, the inhibition result in test [2] is “Active”. Further, the IC50 came to 3400 nM in the test with CA46, 1200 nM in the test with HL-60, 1600 nM with HeLa and 890 nM with A549.
For the compound `CCNC(=O)c1c2c(n3ccccc13)C(=O)c1ncccc1C2=O`, in test [1], the result was inactive.
`O=C1c2cccnc2C(=O)c2c1c(C(=O)OCCN1CCCCC1)c1ccccn21`: the outcome in test [1] was inactive. In the test listed under Bos taurus, the Top1 relaxation inhibition relative to camptothecin (%) was more than 120%. Moreover, the inhibition entry in test [2] was “Active”. For the same compound, the IC50 with CA46 turned out to be 3000 nM; in the test with HL-60, 320 nM; in the test on HeLa it was 2200 nM; in the test on A549 it was 520 nM.
For `O=C1c2cccnc2C(=O)c2c1c(C(=O)OCCCN1CCCC1)c1ccccn21`, the outcome in test [1] was inactive. Also, the Top1 relaxation inhibition relative to camptothecin (%) in the test filed under Bos taurus is more than 120%. Also, the inhibition result in test [2] was “Active”. For the same compound, the IC50 turned out to be 1100 nM in the test with CA46, 26 nM with HL-60, 940 nM in the test on HeLa and 140 nM in the test with A549.
For `CN(C)CCCNC(=O)c1c2c(n3ccccc13)C(=O)c1ncccc1C2=O`, the outcome in test [1] was inactive. Also, the Top1 relaxation inhibition relative to camptothecin (%) in the test listed under Bos taurus was more than 120%. Moreover, the inhibition result in test [2] was “Active”. Further, the 50% inhibitory concentration (IC50) with CA46 turned out to be 1200 nM; in the test on HL-60, 2300 nM; in the test on HeLa, 960 nM; in the test with A549, 370 nM.
Turning to `O=C1c2cccnc2C(=O)c2c1c(C(=O)NCCCN1CCCCC1)c1ccccn21`, the result in test [1] was inactive. The Top1 relaxation inhibition relative to camptothecin (%) in the test listed under Bos taurus is more than 120%. The inhibition result in test [2] is “Active”. In addition, the half-inhibitory concentration (IC50) stood at 1200 nM with CA46, 1300 nM in the test on HL-60, 1200 nM in the test with HeLa and 3300 nM in the test with A549.
Take `O=C1c2cccnc2C(=O)c2c1c(C(=O)N1CCCCC1)c1ccccn21`: in test [1], the outcome was inactive. Further, in the test filed under Bos taurus, the Top1 relaxation inhibition relative to camptothecin (%) was less than 40%. In addition, the IC50 in the test on CA46 amounted to 13000 nM; in the test on HL-60 it was 52000 nM; with HeLa, 19000 nM; in the test with A549 it was 76000 nM.
For `CN(C)CCNC(=O)c1c2c(n3ccccc13)C(=O)c1ncccc1C2=O`, the outcome in test [1] was inactive. Moreover, in the test filed under Bos taurus, the Top1 relaxation inhibition relative to camptothecin (%) was more than 120%. For the same compound, the inhibition entry in test [2] is “Active”. The concentration for half-maximal inhibition (IC50) was 5900 nM in the test on CA46, 1200 nM in the test on HL-60, 920 nM in the test on HeLa and 610 nM in the test on A549.
On to `CCN(CC)CCCNC(=O)c1c2c(n3ccccc13)C(=O)c1ncccc1C2=O`, for which the result in test [1] was inactive. In addition, the Top1 relaxation inhibition relative to camptothecin (%) in the test listed under Bos taurus is more than 120%. Moreover, the inhibition entry in test [2] is “Active”. Moreover, the 50% inhibitory concentration (IC50) in the test with CA46 amounted to 1200 nM; in the test on HL-60, 1400 nM; in the test with HeLa it was 1300 nM; in the test with A549, 1000 nM.
For `O=C1c2cccnc2C(=O)c2c1c(C(=O)NCCN1CCCCC1)c1ccccn21`, the result in test [1] was inactive.
Still for that read-out and setting: next, `O=C1c2cccnc2C(=O)c2c1c(C(=O)OCCN1CCCC1)c1ccccn21`: “inactive”.
On the same count and under the same terms, next, `O=C1c2cccnc2C(=O)c2c1c(C(=O)OCCCBr)c1ccccn21`: “inactive”.
Regarding `O=C1c2cccnc2C(=O)c2c1c(C(=O)OCCCN1CCOCC1)c1ccccn21`, the outcome in test [1] was inactive. The Top1 relaxation inhibition relative to camptothecin (%) in the test listed under Bos taurus was more than 120%. Also, the inhibition entry in test [2] was “Active”. Further, the IC50 was 1400 nM in the test on CA46, 64 nM with HL-60, 2200 nM in the test with HeLa and 1900 nM with A549.
`CN1CCN(CCNC(=O)c2c3c(n4ccccc24)C(=O)c2ncccc2C3=O)CC1`: the outcome in test [1] was inactive. Further, the Top1 relaxation inhibition relative to camptothecin (%) in the test filed under Bos taurus is more than 120%. The inhibition entry in test [2] is “Active”. Also, the concentration for half-maximal inhibition (IC50) was found to be 1100 nM with CA46, 2800 nM in the test with HL-60, 1000 nM with HeLa and 440 nM in the test with A549.
On to `O=C1c2cccnc2C(=O)c2c1c(C(=O)OCCBr)c1ccccn21`, for which, in test [1], the outcome was inactive.
For the compound `O=C1c2cccnc2C(=O)c2c1c(C(=O)NCCCc1ccccc1)c1ccccn21`, in test [1], the outcome was inactive. Further, the Top1 relaxation inhibition relative to camptothecin (%) in the test filed under Bos taurus came to 40%. The IC50 came out at 14000 nM with CA46, 75000 nM with HL-60, 29000 nM in the test on HeLa and 15000 nM in the test on A549.
With `O=C1c2cccnc2C(=O)c2c1c(C(=O)NCCCN1CCCC1)c1ccccn21`, the outcome in test [1] was inactive. For the same compound, the Top1 relaxation inhibition relative to camptothecin (%) in the test filed under Bos taurus is more than 120%. For the same compound, the inhibition entry in test [2] is “Active”. The half-inhibitory concentration (IC50) with CA46 is 2700 nM; in the test on HL-60 it was 1900 nM; in the test with HeLa, 1800 nM; in the test on A549, 1200 nM.
For the compound `CN1CCN(CCCNC(=O)c2c3c(n4ccccc24)C(=O)c2ncccc2C3=O)CC1`, the result in test [1] was inactive. Also, the Top1 relaxation inhibition relative to camptothecin (%) in the test listed under Bos taurus is more than 120%. Also, in test [2], the inhibition result is “Active”. Moreover, the 50% inhibitory concentration (IC50) in the test on CA46 is 3800 nM; in the test with HL-60 it was 2200 nM; with HeLa it was 8900 nM; in the test with A549, 5500 nM.
With `CCOC(=O)c1c2c(n3ccccc13)C(=O)c1ncccc1C2=O`, in test [1], the outcome was inactive. In addition, the Top1 relaxation inhibition relative to camptothecin (%) in the test filed under Bos taurus is 81%. Moreover, the inhibition entry in test [2] was “inactive”. Besides, the IC50 with CA46 was 3700 nM; in the test on HL-60, 300 nM; in the test on HeLa, 22000 nM; with A549 it was 1400 nM.
For `O=C1c2cccnc2C(=O)c2c1c(C(=O)NCCn1ccnc1)c1ccccn21`, in test [1], the outcome was inactive. Also, in the test filed under Bos taurus, the Top1 relaxation inhibition relative to camptothecin (%) is more than 120%. Also, the inhibition result in test [2] is “inactive”. Also, the IC50 with CA46 amounted to 2900 nM; in the test on HL-60, 2300 nM; in the test on HeLa, 5800 nM; in the test with A549, 2300 nM.
In the case of `CN1CCN(C(=O)c2c3c(n4ccccc24)C(=O)c2ncccc2C3=O)CC1`, the result in test [1] was inactive. Further, in the test filed under Bos taurus, the Top1 relaxation inhibition relative to camptothecin (%) amounted to 40%. Also, the half-inhibitory concentration (IC50) in the test on CA46 was 2600 nM; in the test on HL-60 it was 5700 nM; in the test on HeLa, 62000 nM; in the test with A549, 30000 nM.
For the compound `O=C1c2cccnc2C(=O)c2c1c(C(=O)N1CCOCC1)c1ccccn21`, the result in test [1] was inactive. For the same compound, the Top1 relaxation inhibition relative to camptothecin (%) in the test filed under Bos taurus is less than 40%. For the same compound, the concentration for half-maximal inhibition (IC50) with CA46 was 13000 nM; with HL-60 it was 22000 nM; in the test with HeLa it was more than 100000 nM; in the test on A549 it was 77000 nM.
For `O=C1c2cccnc2C(=O)c2c1c(C(=O)NCCc1ccccc1)c1ccccn21`, the outcome in test [1] was inactive. Also, in the test listed under Bos taurus, the Top1 relaxation inhibition relative to camptothecin (%) is less than 40%. Moreover, the half-maximal inhibitory concentration (IC50) with CA46 came out at 7900 nM; in the test on HL-60, 14000 nM; in the test on HeLa, 17000 nM; in the test on A549 it was 19000 nM.
For the compound `CCN(CC)C(=O)c1c2c(n3ccccc13)C(=O)c1ncccc1C2=O`, the outcome in test [1] was inactive. Also, the Top1 relaxation inhibition relative to camptothecin (%) in the test listed under Bos taurus is less than 40%. In addition, the IC50 is 15000 nM in the test with CA46, 14000 nM in the test with HL-60, 46000 nM with HeLa and 64000 nM in the test with A549.
